Experiment [1] deals with SaOS-2 cells. The experiment in a line: cAMP production in SaOS-2 cells. Particulars: 60 min, 200 μM IBMX. It is filed as cell-based, Human. As for the experimental part: SaOS-2 cells were seeded at a density of 5e4 cells in 96-well plates. Cells were cultured in α-MEM 1× media supplemented with 10% FBS for 24 hours in order to allow attachment to the plate. Before the experiment, cells were washed with Hank's Balanced Salt Solution (HBSS). Cells were then incubated with various concentrations (1e-12-1e-6 M) of test peptides of the invention supplemented with 200 μM of 3-isobutyl-1-methylxanthine (IBMX). Plates were then incubated for 60 minutes at 37° C. Following this step, cells were washed 3 times with 150 μl PBS. Cell lysis was performed with 150 μl cell lysis buffer (R&D Systems) and a freeze (−20° C.)-thaw (37° C.) cycle was carried out. The contents were then collected into 500 μl tubes and centrifuged at 600 rpm for 10 min (4° C.). The supernatant was collected and cAMP was measured using a cAMP assay kit (R&D Systems) according to the manufacturer's instructions. The concentration of cAMP was calculated from a standard curve of cAMP ranging from 0 to 240 pmol/ml.
On the technique in general: Changes in cAMP serve as a functional read-out for many G protein-coupled receptors.

The test system of experiment [2] is SaOS-2 cells. The experiment in a line: TGF-β release from SaOS-2 cells. The class given is cell-based, Human. As to conditions: 1e-12-1e-6 M, 8 hours. As for the experimental part:
Human osteoblast SaOS-2 cells [sourced from The European Collection of Cell Cultures (ECACC)] were seeded at a density of 2e5 cells/well in 24 well plates [Nunc, Roskilde, Denmark]. The cells were incubated in media [Life Technologies] supplemented with 10% FBS. Before adding test peptides of the invention, the media were changed with fresh 0.1% FBS-containing media 24 h previously. On the day of experimentation, media were removed and 1 ml of respective peptides of the invention GIP/Xenin, GIP/Xenin Asp and GIP/Xenin Glu [(DAla2)GIP/xenin-8-Gln, (DAla2)GIP/xenin-8-Gln(L-Asp), and (DAla2)GIP/xenin-8-Gln(L-Glu) respectively] (1e-12-1e-6 M) were added to each well. The plates were then incubated at 37° C. for a period of 8 hours. After incubation, media was collected and TGF-β released in the supernatant measured using a TGF-β Immunoassay kit (Quantikine, R&D Systems) according to the manufacturer's instructions. The concentration of TGF-β was calculated from a standard curve of recombinant human TGF-β ranging from […].

Experiment [3] relates to SaOS-2 cells. Kind of experiment: IGF-1 release from SaOS-2 cells. The class given is cell-based, Human. Particulars: 1e-12-1e-6 M, 8 hours. As for the experimental part: SaOS-2 cells were seeded at a density of 2e5 cells/well in 6-well plates in 10% FBS containing media. Media were changed 24 hours prior to experimentation with 0.1% FBS. Media was then removed, followed by an addition of 1 ml of test peptides of the invention (1e-12-1e-6 M). Plates were incubated at 37° C. for 8 hours. After incubation, media was collected and IGF-1 released in the supernatant was measured using IGF-1 Immunoassay kit (Quantikine, R&D Systems) according to the manufacturer's instructions. The concentration of IGF-1 in the samples was determined from a standard curve of recombinant human IGF-1 in the range of 0-60 ng/ml.

Experiment [4] deals with high fat fed mice. Kind of experiment: DEXA bone mineral density and content after 42 days treatment. The class given is in vivo. Particulars: P<0.05 and P<0.01 respectively. As for the experimental part: The DEXA (dual energy X-ray absorptiometry) analysis [Lunar PIXImus, Inside Outside Sales] was performed on unconscious mice and the whole body was scanned. Various parameters like bone mineral density (BMD), bone mineral content (BMC), lean mass, fat mass and percentage of total fat were measured according to the manufacturer's instructions.

The test system of experiment [5] is high fat fed mice. Kind of experiment: Glucose tolerance test after 42 days treatment. It is filed as in vivo. As for the experimental part: FIG. 14A-14B illustrate tests conducted after once daily treatment with saline, GIP/Xenin hybrid, GIP/Xenin hybrid Asp and GIP/Xenin hybrid Glu for 42 days. (FIG. 14A) Blood glucose before and after i.p injection of glucose (18 mmol/kg bw) alone in 18 hr fasted mice. (FIG. 14B) AUC values for blood glucose for 0-105 min are shown in insets. Values represent means±SEM for 6-7 mice. *P<0.05, **P<0.01 and ***P<0.001 compared to saline control;

Experiment [6] relates to high fat fed mice. The experiment in a line: 42 day once daily study in high fat fed mice (body weight, composition, food intake, non-fasting glucose). The class given is in vivo. Particulars: 25 nmol/kg once daily, 42 days. From the text: FIG. 10 illustrates body weight as measured for 3 days before and 42 days during (indicated by black horizontal bar) once daily treatment with saline vehicle (0.9% w/v NaCl), GIP/Xenin hybrid, GIP/Xenin hybrid Asp and GIP/Xenin hybrid Glu (each peptide at 25 nmol/kg bw). Values represent means±SEM for 5 mice;
FIG. 11A-11B illustrate (FIG. 11A) % Fat mass and (FIG. 11B) % Lean mass as measured by DEXA scanning in high fat fed mice following 42 days treatment with GIP/Xenin hybrid, GIP/Xenin hybrid Asp and GIP/Xenin hybrid Glu. Values represent means±SEM for 3-5 mice;
FIG. 12 illustrates cumulative energy intake as measured for 3 days before and 42 days (indicated by black horizontal bar) during once daily treatment with saline vehicle (0.9% w/v NaCl), GIP/Xenin hybrid, GIP/Xenin hybrid Asp and GIP/Xenin hybrid Glu (each peptide at 25 nmol/kg bw). Values represent means±SEM for 3-5 mice. ^ΔP<0.05, ^ΔΔP<0.01, ^ΔΔΔP<0.001 compared to saline control;
FIG. 13 illustrates non fasting blood glucose as measured for 3 days before and 42 days during (indicated by black horizontal bar) once daily treatment with saline vehicle (0.9% w/v NaCl), GIP/Xenin hybrid, GIP/Xenin hybrid Asp and GIP/Xenin hybrid Glu (each peptide at 25 nmol/kg bw). Values represent means±SEM for 5 mice; […]

Experiment [7] has as its system high fat fed mice. Kind of experiment: Three-point bending of bone after 42 days treatment. It is filed as in vivo. How it is done:
Femur and tibia bones were extracted at the end of the experiment using a scalpel and fine scissors, soft tissue removed and stored in 70% ethanol. Three-point bending strength was measured with a constant span length of 10 mm. Femurs were positioned horizontally with the anterior surface facing upwards, centered on the support and the pressing force was applied vertically to the midshaft of the bone. Each bone was tested with a loading speed of 2 mm/min until failure with a 90 N load cell. The load-time curve obtained was converted into a load-displacement curve by the MTS testSuite TW software (MTS, Créteil, France). Ultimate load and ultimate displacement were respectively defined as the maximum load and maximum displacement recorded before break-down of the bone. Stiffness was calculated as the slope of the elastic deformation of the bone. The total absorbed energy was defined as the total area under the load-displacement curve and represents the total energy absorbed by the midshaft femur. The yield was defined as the load necessary to initiate the transformation from elastic to plastic deformation. The post-yield energy was defined as the area under the load-displacement curve from yield until failure and represents the energy absorbed by bone during plastic deformation.

The subject of experiment [8] is high fat fed mice. The experiment in a line: Microcomputed tomography of tibia trabecular and cortical bone after 42 days treatment. It is filed as in vivo. As to conditions: microCT. How it is done: The tibia was used to investigate trabecular and cortical bone microstructural morphology by microCT analysis with a Skyscan 1172 microtomograph (Bruker, Kontich, Belgium) equipped with an X-ray tube working at 69 kV/100 μA. The pixel size was fixed at 8.3 μm, the rotation step at 0.25° and exposure was performed with a 0.5-mm aluminum filter. Bone mass and morphometry parameters were calculated with the CTan software (release 1.11.4.2, Bruker). The trabecular parameters were assessed at the volume of interest (VOI), located 1 mm below the growth plate and spanning 2.5 mm in height. Trabecular bone volume (BV/TV, in %), trabecular number (Tb.N, in 1/mm) and trabecular separation (Tb.Sp, in μm) were measured according to guidelines and nomenclature proposed by the American Society for Bone and Mineral Research. Cortical parameters were determined at the midshaft tibia with a lab-made routine using ImageJ. […] (Ma.Ar), cortical area (Ct.Ar), total area (Tt.Ar), cortical thickness (Ct.Th, in μm) and cross-sectional moment of inertia (J in mm4) were also measured according to guidelines and nomenclature on bone histomorphometry proposed by the American Society for Bone and Mineral Research.

Experiment [9] deals with high fat fed mice. The experiment in a line: Insulin tolerance test after 42 days treatment. It is filed as in vivo. Particulars: insulin 25 U/kg i.p., non-fasted. As for the experimental part: FIG. 15A-15B illustrate Blood glucose (FIG. 15A) and blood glucose AUC (FIG. 15B) values for 0-105 min (shown in inset) following 42 days treatment with saline, GIP/Xenin hybrid, GIP/Xenin hybrid Asp and GIP/Xenin hybrid Glu (each peptide at 25 nmol/kg bw), and subsequent insulin (25 U/kg bw) injection intraperitoneally (at t=0) in non-fasted mice. Values represent means±SEM for 5 mice. *P<0.05, **P<0.01 and ***P<0.001 compared to saline control;

Where no end group is shown, it is not given here. [ ]: non-standard residue; d: D form.

In the case of “TYR-(d)ALA-GLU-GLY-THR-PHE-ILE-SER-ASP-TYR-SER-ILE-ALA-MET-HIS-PRO-GLN-GLN-PRO-TRP-ILE-LEU-GLY-ALA-ALA-ASP-ASP-ASP-ASP-ASP-ASP (Y[dA]EGTFISDYSIAMHPQQPWILGAADDDDDD; also: Gln side-chain L-Asp modification; listed as Homo sapiens) [GIP/Xenin Asp]”, in the experiment on SaOS-2 cells [1], the “Lowest effective concentration for cAMP production” value turned out to be 10 nM. In the experiment on SaOS-2 cells [2], the “TGF-β release from SaOS-2 cells” value is “dose-dependently stimulated”. The “IGF-1 release from SaOS-2 cells” value in the experiment on SaOS-2 cells [3] was “dose-dependently stimulated”. For the same substance, the “Tibia bone mineral density” value in the experiment with high fat fed mice [4] was “reduced”. The “Blood glucose overall AUC after glucose challenge” value in the experiment with high fat fed mice [5] (0-105 min, glucose 18 mmol/kg) is “significant (P<0.05) reduction in overall AUC measures”. Besides, the “Blood glucose at 30, 60 and 105 min after glucose challenge” value in the experiment on high fat fed mice [5] (glucose 18 mmol/kg i.p.) was “significantly (P<0.01 to P<0.001)”. The “Body weight, fat and lean mass, food intake” value in the experiment on high fat fed mice [6] is “no significant change”.
In the case of “TYR-(d)ALA-GLU-GLY-THR-PHE-ILE-SER-ASP-TYR-SER-ILE-ALA-MET-HIS-PRO-GLN-GLN-PRO-TRP-ILE-LEU-GLY-ALA-ALA-GLU-GLU-GLU-GLU-GLU-GLU (Y[dA]EGTFISDYSIAMHPQQPWILGAAEEEEEE; also: Gln side-chain L-Glu modification; listed as Homo sapiens) [GIP/Xenin Glu]”, in the experiment with SaOS-2 cells [1], the “Lowest effective concentration for cAMP production” value is 1000 nM. The “Bone ultimate load and stiffness” value in the experiment on high fat fed mice [7] is given as “negative effects (P<0.05 to P<0.001)”. Besides, the “TGF-β release from SaOS-2 cells” value in the experiment on SaOS-2 cells [2] is recorded as “dose-dependently stimulated”. The “IGF-1 release from SaOS-2 cells” value with SaOS-2 cells [3] is “dose-dependently stimulated”. Also, the “Cortical bone area, thickness and moment of inertia / structural properties of cortical bone” value with high fat fed mice [8] is “reduced”. Also, the “Hypoglycaemic response to exogenous insulin” value with high fat fed mice [9] is “more pronounced hypoglycaemic response”. Besides, the “Tibia bone mineral density” value in the experiment with high fat fed mice [4] is “reduced”. Also, the “Blood glucose concentrations after glucose challenge” value with high fat fed mice [5] (glucose 18 mmol/kg) is listed as “also reduced blood glucose concentrations, but not as effectively as GIP/Xenin Asp”. The “Body weight, fat and lean mass, food intake” value in the experiment with high fat fed mice [6] was “no significant change”.

These data come from US11738065B2, “Polypeptides and analogues thereof for use in the treatment of diabetes and bone disorders” (UNIVERSITY OF ULSTER, priority 2015, dated 2023).
